Measurements published in patent US11458225B2, “3D vascularized human ocular tissue for cell therapy and drug discovery” (THE UNITED STATES OF AMERICA, as represented by the …, priority 2016, dated 2022).
“Also recorded” adds a separate entry of the source.

Columns and labels:
[1] = system: 3D vascularized tissue containing GFP positive primary endothelial cells, pericytes, and fibroblasts; conditions: a week of VEGF treatment (85 ng/ml) vs 3 days then basal 1.7 ng/ml
Source text: (A) 8 bit images of printed GFP endothelial cells (white) were quantified. Five line probes were placed in each gap between stripes of the printed geometry. Each line probe detects peaks (hollow circles) of GFP intensity above a threshold. Line 1 and 6, 2 and 5, 3 and 4 indicate edge, intermediate, and center of each gap, respectively. (B) Two experimental groups are compared. […] Angiogenesis was quantified as a number of GFP peaks in each line probe. The quantification of angiogenesis was performed between groups and time frames of G (n=5; number of printings). Error bars indicates standard error and mean. Two-way ANOVA and Bonferroni post-hoc pair comparison. † indicates statistical significance (p<0.05) between groups (left figure) and day 5-6 and day 7-8 (right figure). # and * indicates statistical significance (p<0.05) in day 3-4 vs. day 5-6 and day 3-4 vs. day 7-8, respectively.

RPE-“choroid” tissues = assay: Hypoxia disease model: DMOG treatment of bioprinted RPE-"choroid" tissue, confocal imaging; type: cell-based, human; conditions: two weeks of treatment
Experimental: FIGS. 18A-18I are digital images showing the effect of hypoxia on “choriocapillaris.” RPE-“choroid” tissues were treated with DMOG (100 μM) after 4 weeks from printing. DMOG inhibits prolyl-4-hydroxylase and induces hypoxia-inducible factor. DMOG was treated on only apical region of RPE or on both apical region of RPE and “choroid” sides. After two weeks of DMOG treatment, tissues were fixed in 4% PFA. Z-stack confocal images were separated into three sections as RPE (A-C), subRPE/scaffold (D-F), and “choroid” (G-I). RPE was recognized by Hoescht (nuclei). Choroid was stained with CD31. Scale bar=100 μm.
It was tested if hypoxic condition of RPE or RPE-“choroid” plays a role in “choroidal” neovascularization. Hypoxia has been reported as a crucial factor to induce wet AMD. A chemical compound, DMOG, was used to induce hypoxia-inducible factor in RPE or every cell type within the tissue.

Compound	growth and viability of microvascular network [1]	vascularization in sub-RPE region (CD31 stain) (RPE-“choroid” tissues; DMOG 100 μM from 4 weeks after printing, on apical region of RPE only or on both RPE and “choroid” sides)	changes of the RPE monolayer (RPE-“choroid” tissues; DMOG 100 μM, RPE recognized by Hoescht)
VEGF	significantly enhanced growth and viability of microvascular network		
COC(=O)CNC(=O)C(=O)OC [DMOG]		significantly induced vascularization in sub-RPE region; also recorded: induced vascularization in the subRPE region	did not show noticeable changes
